Where two headings read alike, the source gives them in different places.
What was measured:
Boophilus microplus = Boophilus microplus test (BOOPMI injection); format: in vivo; settings: Rhipicephalus microplus, read-out: effect in % (no fertile eggs laid)
Description: (§1) Solvent: dimethyl sulphoxide
The solution of active compound is injected into the abdomen (Boophilus microplus), and the animals are transferred into dishes and kept in a climatised room. The activity is assessed by […] of fertile eggs.
100% means that none of the ticks has laid any fertile eggs.

Lucilia cuprina larvae = test: Lucilia cuprina test (LUCICU); format: in vivo; settings: read-out: kill in % (larvae killed)
Description: as §1
Vessels containing horse meat treated with the active compound preparation of the desired concentration are populated with Lucilia cuprina larvae.
(§2) After the desired period of time, the kill in % is determined.

[1] = system: green peach aphid (Myzus persicae); test: Myzus test (MYZUPE spray treatment); format: in vivo; settings: Myzus persicae, foliar, read-out: effect in % (aphids killed)
Excerpt: Solvent: 78 parts by weight of acetone
(§3) Solvent: 78.0 parts by weight of acetone

[2] = system: caterpillars of the armyworm (Spodoptera frugiperda); test: Spodoptera frugiperda test (SPODFR spray treatment); format: in vivo; settings: Spodoptera frugiperda, foliar, read-out: effect in % (caterpillars killed)
Excerpt: as §3

[3] = log P determination by HPLC (EEC Directive 79/831 Annex V.A8); format: physicochemical
Description: The measurements were carried out using an Agilent 1100 LC system with a 50*4.6 Zorbax Eclipse C18 1.8 μm column (oven temperature 55° C., flow rate 2.0 ml/min).
The following mobile phases were used:
Mobile phase A: acetonitrile+1000 μl of formic acid/l
Mobile phase B: Millipore water+900 μl of formic acid/l

[4] = system: larvae of the mustard beetle (Phaedon cochleariae); test: Phaedon test (PHAECO spray treatment); settings: Phaedon cochleariae, in Brassica rapa, foliar, read-out: effect in % (beetle larvae killed)
adult Musca domestica = test: Musca domestica test (MUSCDO); format: in vivo; settings: treated sponge, read-out: kill in % (flies killed)
Description: as §1
Vessels containing a sponge treated with the active compound preparation of the desired concentration are populated with adult Musca domestica.
as §2

[5] = by HPLC according to EEC Directive 79/831 Annex V.A8, read-out: log P
[6] = 20 μg/animal, injection into the abdomen
[7] = application rate 100 g/ha, maize leaf discs

## CNC(=O)c1cc(Cl)cc(C)c1NC(=O)c1cc(Cn2nnc(C(F)(F)C(F)(F)C(F)(F)F)n2)nn1-c1ncccc1Cl [Example 2]
Boophilus microplus
  pest or weed control at 0.02 mg: ≥ 80%
Lucilia cuprina larvae; in Equus caballus
  pest or weed control at 100 ppm: ≥ 80%
[1]; in Brassica rapa
  pest or weed control at 100 g/ha: ≥ 80%
[2]; in Zea mays
  pest or weed control at 100 g/ha: ≥ 80%
[3]; [5]
  chromatographic logP: 3.75
[4]
  pest or weed control at 100 g/ha: ≥ 80%
Adult Musca domestica
  pest or weed control at 100 ppm: ≥ 80%

## Cc1cc(Cl)cc(C(N)=O)c1NC(=O)c1cc(Cn2nnc(C(F)(F)C(F)(F)C(F)(F)F)n2)nn1-c1ncccc1Cl [Example 3]
Boophilus microplus
  pest or weed control at 0.02 mg: ≥ 80%
Lucilia cuprina larvae; in Equus caballus
  pest or weed control at 100 ppm: ≥ 80%
[2]; in Zea mays
  pest or weed control at 100 g/ha: ≥ 80%
[3]; [5]
  chromatographic logP: 3.49
[4]
  pest or weed control at 100 g/ha: ≥ 80%
Adult Musca domestica
  pest or weed control at 100 ppm: ≥ 80%

## CNC(=O)c1cc(C#N)cc(C)c1NC(=O)c1cc(Cn2nnc(C(F)(F)C(F)(F)C(F)(F)F)n2)nn1-c1ncccc1Cl [Example 5]
Boophilus microplus
  pest or weed control at 0.02 mg: ≥ 80%
Lucilia cuprina larvae; in Equus caballus
  pest or weed control at 100 ppm: ≥ 80%
[1]; in Brassica rapa
  pest or weed control at 100 g/ha: ≥ 80%
[2]; in Zea mays
  pest or weed control at 100 g/ha: ≥ 80%
[3]; [5]
  chromatographic logP: 3.43
[4]
  pest or weed control at 100 g/ha: ≥ 80%
Adult Musca domestica
  pest or weed control at 100 ppm: ≥ 80%

## Cc1cc(C#N)cc(C(=O)NC(C)C)c1NC(=O)c1cc(Cn2nnc(C(F)(F)C(F)(F)C(F)(F)F)n2)nn1-c1ncccc1Cl [Example 6]
Boophilus microplus
  pest or weed control at 0.02 mg: ≥ 80%
Lucilia cuprina larvae; in Equus caballus
  pest or weed control at 100 ppm: ≥ 80%
[2]; in Zea mays
  pest or weed control at 100 g/ha: ≥ 80%
[3]; [5]
  chromatographic logP: 3.82
[4]
  pest or weed control at 100 g/ha: ≥ 80%

## Cc1cc(C#N)cc(C(N)=O)c1NC(=O)c1cc(Cn2nnc(C(F)(F)C(F)(F)C(F)(F)F)n2)nn1-c1ncccc1Cl [Example 7]
Boophilus microplus
  pest or weed control at 0.02 mg: ≥ 80%
Lucilia cuprina larvae; in Equus caballus
  pest or weed control at 100 ppm: ≥ 80%
[1]; in Brassica rapa
  pest or weed control at 100 g/ha: ≥ 80%
[2]; in Zea mays
  pest or weed control at 100 g/ha: ≥ 80%
[3]; [5]
  chromatographic logP: 3.17
[4]
  pest or weed control at 100 g/ha: ≥ 80%
Adult Musca domestica
  pest or weed control at 100 ppm: ≥ 80%

## Cc1cc(C#N)cc(C(=O)NC(C)C)c1NC(=O)c1cc(Cn2nnc(C(F)(F)F)n2)nn1-c1ncccc1Cl [Example 10]
Boophilus microplus; [6]
  pest or weed control at 0.02 mg: ≥ 80%
Lucilia cuprina larvae; in Equus caballus
  pest or weed control at 100 ppm: ≥ 80%
[2]; in Zea mays
  pest or weed control at 100 g/ha: ≥ 80%
[3]; log P
  chromatographic logP: 3.07
[4]
  pest or weed control at 100 g/ha: ≥ 80%
Adult Musca domestica
  pest or weed control at 100 ppm: ≥ 80%

## Cc1cc(Cl)cc(C(=O)NCC#N)c1NC(=O)c1cc(Cn2nnc(C(F)(F)C(F)(F)F)n2)nn1-c1ncccc1Cl [Example 133]
[2]; in Zea mays
  pest or weed control at 100 g/ha: ≥ 80%
[3]; log P
  chromatographic logP: 3.32
[4]
  pest or weed control at 100 g/ha: ≥ 80%
Adult Musca domestica
  pest or weed control at 100 ppm: ≥ 80%

## Cc1cc(C#N)cc(C(=O)NC(C)(C)C)c1NC(=O)c1cc(Cn2nnc(C(F)(F)C(F)(F)F)n2)nn1-c1ncccc1Cl [Example 136]
[1]; in Brassica rapa
  pest or weed control at 100 g/ha: ≥ 80%
[2]; in Zea mays
  pest or weed control at 100 g/ha: ≥ 80%
[3]; log P
  chromatographic logP: 3.86
[4]
  pest or weed control at 100 g/ha: ≥ 80%
Adult Musca domestica
  pest or weed control at 100 ppm: ≥ 80%

## Cc1cc(C#N)cc(C(N)=O)c1NC(=O)c1cc(Cn2nnc(C(F)(F)C(F)(F)F)n2)nn1-c1ncccc1Cl [Example 137]
[2]; in Zea mays
  pest or weed control at 100 g/ha: ≥ 80%
[3]; log P
  chromatographic logP: 2.83
[4]
  pest or weed control at 100 g/ha: ≥ 80%
Adult Musca domestica
  pest or weed control at 100 ppm: ≥ 80%

## Cc1cc(Br)cc(C(=O)NC(C)C2CC2)c1NC(=O)c1cc(Cn2nnc(C(F)(F)C(F)(F)F)n2)nn1-c1ncccc1Cl (stereo not drawn) [Example 144]
[2]; in Zea mays
  pest or weed control at 100 g/ha: ≥ 80%
[3]; log P
  chromatographic logP: 4.29
[4]
  pest or weed control at 100 g/ha: ≥ 80%
Adult Musca domestica
  pest or weed control at 100 ppm: ≥ 80%

## O=C(NC1CC1)c1cc(Cl)cc(Cl)c1NC(=O)c1cc(Cn2nnc(C(F)(F)C(F)(F)F)n2)nn1-c1ncccc1Cl [Example 151]
[2]; in Zea mays
  pest or weed control at 100 g/ha: ≥ 80%
[3]; log P
  chromatographic logP: 3.57
[4]
  pest or weed control at 100 g/ha: ≥ 80%
Adult Musca domestica
  pest or weed control at 100 ppm: ≥ 80%

## Cc1cc(Cl)cc(C(=O)NC(C)C)c1NC(=O)c1cc(Cn2nnnc2C(F)(F)F)nn1-c1ncccc1Cl [Example 162]
[1]; in Brassica rapa
  pest or weed control at 100 g/ha: ≥ 80%
[2]; in Zea mays
  pest or weed control at 100 g/ha: ≥ 80%
[3]; log P
  chromatographic logP: 3.12
[4]
  pest or weed control at 100 g/ha: ≥ 80%
Adult Musca domestica
  pest or weed control at 100 ppm: ≥ 80%

## CNC(=O)c1cc(C)cc(C)c1NC(=O)c1cc(Cn2nnnc2C(F)(F)F)nn1-c1ncccc1Cl [Example 178]
[1]; in Brassica rapa
  pest or weed control at 100 g/ha: ≥ 80%
[2]; in Zea mays
  pest or weed control at 100 g/ha: ≥ 80%
[3]; log P
  chromatographic logP: 2.48
[4]
  pest or weed control at 100 g/ha: ≥ 80%
Adult Musca domestica
  pest or weed control at 100 ppm: ≥ 80%

## Cc1cc(I)cc(C(=O)NC(C)(C)C)c1NC(=O)c1cc(Cn2nnc(C(F)(F)C(F)(F)F)n2)nn1-c1ncccc1Cl [Example 218]
Boophilus microplus; [6]
  pest or weed control at 0.02 mg: ≥ 80%
Lucilia cuprina larvae; in Equus caballus
  pest or weed control at 100 ppm: ≥ 80%
[2]; in Zea mays
  pest or weed control at 100 g/ha: ≥ 80%
[3]; log P
  chromatographic logP: 4.5
[4]
  pest or weed control at 100 g/ha: ≥ 80%
Adult Musca domestica
  pest or weed control at 100 ppm: ≥ 80%

## Cc1cc(F)cc(C(=O)NC2CC2)c1NC(=O)c1cc(Cn2nnc(C(F)(F)C(F)(F)F)n2)nn1-c1ncccc1Cl [Example 220]
Boophilus microplus; [6]
  pest or weed control at 0.02 mg: ≥ 80%
Lucilia cuprina larvae; in Equus caballus
  pest or weed control at 100 ppm: ≥ 80%
[1]; in Brassica rapa
  pest or weed control at 100 g/ha: ≥ 80%
[2]; in Zea mays
  pest or weed control at 100 g/ha: ≥ 80%
[3]; log P
  chromatographic logP: 3.3
[4]
  pest or weed control at 100 g/ha: ≥ 80%

## CNC(=O)c1cc(Cl)cc(Cl)c1NC(=O)c1cc(Cn2nnc(C(F)(F)C(F)(F)F)n2)nn1-c1ncccc1Cl [Example 222]
Boophilus microplus; [6]
  pest or weed control at 0.02 mg: ≥ 80%
Lucilia cuprina larvae; in Equus caballus
  pest or weed control at 100 ppm: ≥ 80%
[1]; in Brassica rapa
  pest or weed control at 100 g/ha: ≥ 80%
[2]; in Zea mays
  pest or weed control at 100 g/ha: ≥ 80%
[3]; log P
  chromatographic logP: 3.34
[4]
  pest or weed control at 100 g/ha: ≥ 80%

## Cc1cc(Br)cc(C(=O)NC2CC2)c1NC(=O)c1cc(Cn2nnc(C(F)(F)F)n2)nn1-c1ncccc1C(F)(F)F [Example 229]
Boophilus microplus; [6]
  pest or weed control at 0.02 mg: ≥ 80%
Lucilia cuprina larvae; 100 ppm, treated horse meat
  pest or weed control at 100 ppm: ≥ 80%
[2]; [7]
  pest or weed control at 100 g/ha: ≥ 80%
[3]; reversed-phase HPLC, Zorbax Eclipse C18 column, by HPLC according to EEC Directive 79/831 Annex V.A8, read-out: log P
  chromatographic logP: 3.52
[4]
  pest or weed control at 100 g/ha: ≥ 80%

## Cc1cc(F)cc(C(=O)NC(C)C)c1NC(=O)c1cc(Cn2nnc(C(F)F)n2)nn1-c1ncccc1Cl [Example 295]
Boophilus microplus; [6]
  pest or weed control at 0.02 mg: ≥ 80%
Lucilia cuprina larvae; in Equus caballus
  pest or weed control at 100 ppm: ≥ 80%
[1]; in Brassica rapa
  pest or weed control at 100 g/ha: ≥ 80%
[2]; in Zea mays
  pest or weed control at 100 g/ha: ≥ 80%
[3]; log P
  chromatographic logP: 2.64
[4]
  pest or weed control at 100 g/ha: ≥ 80%

## Cc1cc(C#N)cc(C(=O)NCC#N)c1NC(=O)c1cc(Cn2nnc(C(F)(F)F)n2)nn1-c1ccccc1Cl [Example 540]
[1]; application rate 100 g/ha, Chinese cabbage leaf discs
  pest or weed control at 100 g/ha: ≥ 80%
[2]; [7]
  pest or weed control at 100 g/ha: ≥ 80%
[3]; reversed-phase HPLC, Zorbax Eclipse C18 column, determined by HPLC according to EEC Directive 79/831 Annex V.A8, read-out: log P
  chromatographic logP: 2.97
[4]
  pest or weed control at 100 g/ha: ≥ 80%

## CNC(=O)c1cc(C#N)cc(C)c1NC(=O)c1cc(C(C)n2nnc(C(F)(F)F)n2)nn1-c1ncccc1Cl (stereo not drawn) [Example 542]
[1]; in Brassica rapa
  pest or weed control at 100 g/ha: ≥ 80%
[2]; in Zea mays
  pest or weed control at 100 g/ha: ≥ 80%
[3]; log P
  chromatographic logP: 2.86
[4]
  pest or weed control at 100 g/ha: ≥ 80%

## CNC(=O)c1cc(Cl)cc(C)c1NC(=O)c1cc(C(C)n2nnc(C(F)(F)F)n2)nn1-c1ncccc1Cl (stereo not drawn) [Example 543]
[1]; in Brassica rapa
  pest or weed control at 100 g/ha: ≥ 80%
[2]; in Zea mays
  pest or weed control at 100 g/ha: ≥ 80%
[3]; log P
  chromatographic logP: 3.26
[4]
  pest or weed control at 100 g/ha: ≥ 80%

## Cc1cc(Cl)cc(C(=O)NC(C)(C)C)c1NC(=O)c1cc(Cn2nnc(C(F)(F)F)n2)nn1-c1ncccc1Cl [Example 544]
[1]; in Brassica rapa
  pest or weed control at 100 g/ha: ≥ 80%
[2]; in Zea mays
  pest or weed control at 100 g/ha: ≥ 80%
[3]; log P
  chromatographic logP: 3.85
[4]
  pest or weed control at 100 g/ha: ≥ 80%

Reference: patent US8324390B2, “Tetrazole-substituted anthranilamides as pesticides” (Bayer CropScience AG, priority 2008, dated 2012)
